Experimental data as given in the NIST ThermoML archive (doi:10.1016/j.jct.2006.03.010).

Test: xn = mol fraction of the nth substance listed
Settings: 101 kPa, Liquid; for speed of sound: Linear variable-path acoustic interferometer

ClC(Cl)Cl [trichloromethane] + CCCCO
Settings | mass density, 298.15 K [kg/m3] | mass density, 308.15 K [kg/m3] | speed of sound, 298.15 K [m/s] | speed of sound, 308.15 K [m/s] | viscosity, 298.15 K [mPa·s] | viscosity, 308.15 K [mPa·s]
x1 = 0.0512 | 836.7 | 828.27 | 1215 | 1190 | 2.407 | 1.883
x1 = 0.1 | 865.9 | 857 | 1198 | 1171 | 2.248 | 1.764
x1 = 0.149 | 895.66 | 886.25 | 1180 | 1153 | 2.056 | 1.628
x1 = 0.2009 | 927.49 | 917.55 | 1163 | 1134 | 1.872 | 1.501
x1 = 0.2506 | 958.3 | 947.84 | 1146 | 1116 | 1.705 | 1.372
x1 = 0.2999 | 989.27 | 978.3 | 1130 | 1099 | 1.543 | 1.26
x1 = 0.3659 | 1031.4 | 1019.75 | 1110 | 1078 | 1.351 | 1.114
x1 = 0.407 | 1057.94 | 1045.83 | 1097 | 1065 | 1.245 | 1.035
x1 = 0.4515 | 1087.02 | 1074.42 | 1085 | 1051 | 1.139 | 0.957
x1 = 0.4997 | 1118.91 | 1105.67 | 1071 | 1037 | 1.041 | 0.886
x1 = 0.5502 | 1152.78 | 1138.99 | 1058 | 1024 | 0.945 | 0.815
x1 = 0.6012 | 1187.46 | 1173.05 | 1045 | 1011 | 0.877 | 0.76
x1 = 0.6527 | 1223.02 | 1207.99 | 1033 | 998 | 0.804 | 0.71
x1 = 0.7021 | 1257.69 | 1241.99 | 1022 | 987 | 0.755 | 0.67
x1 = 0.7519 | 1293.2 | 1276.84 | 1013 | 978 | 0.715 | 0.643
x1 = 0.8021 | 1329.4 | 1312.4 | 1004 | 969 | 0.67 | 0.607
x1 = 0.8518 | 1365.91 | 1348.31 | 997 | 962 | 0.654 | 0.595
x1 = 0.9024 | 1403.63 | 1385.4 | 992 | 956 | 0.614 | 0.565
x1 = 0.951 | 1440.79 | 1421.97 | 987 | 952 | 0.596 | 0.546
x1 = 1 | 1478.82 | 1459.45 | 985 | 950 | 0.556 | 0.513

ClC(Cl)Cl [trichloromethane] + CCO
Settings | mass density, 298.15 K [kg/m3] | mass density, 308.15 K [kg/m3] | speed of sound, 298.15 K [m/s] | speed of sound, 308.15 K [m/s] | viscosity, 298.15 K [mPa·s] | viscosity, 308.15 K [mPa·s]
x1 = 0.0522 | 834.86 | 824.87 | 1129 | 1092 | 1.085 | 0.902
x1 = 0.1007 | 879.76 | 868.7 | 1114 | 1076 | 1.07 | 0.89
x1 = 0.1468 | 920.98 | 909.11 | 1101 | 1062 | 1.043 | 0.869
x1 = 0.2014 | 968.01 | 955.3 | 1085 | 1046 | 1.003 | 0.836
x1 = 0.2505 | 1008.24 | 994.85 | 1071 | 1034 | 0.956 | 0.803
x1 = 0.3005 | 1047.8 | 1033.7 | 1057 | 1022 | 0.901 | 0.764
x1 = 0.3491 | 1084.58 | 1069.92 | 1045 | 1011 | 0.86 | 0.732
x1 = 0.3999 | 1121.8 | 1106.5 | 1033 | 1000 | 0.809 | 0.696
x1 = 0.4505 | 1157.08 | 1141.59 | 1021 | 991 | 0.767 | 0.665
x1 = 0.5045 | 1193.09 | 1177.49 | 1011 | 982 | 0.73 | 0.64
x1 = 0.5509 | 1223.51 | 1207.46 | 1003 | 975 | 0.694 | 0.613
x1 = 0.6007 | 1254.55 | 1238.37 | 996 | 967 | 0.668 | 0.596
x1 = 0.6492 | 1284.3 | 1267.81 | 990 | 962 | 0.644 | 0.58
x1 = 0.7008 | 1314.71 | 1297.8 | 985 | 957 | 0.629 | 0.569
x1 = 0.7496 | 1342.79 | 1325.84 | 982 | 953 | 0.615 | 0.562
x1 = 0.8059 | 1374.26 | 1357.1 | 981 | 950 | 0.601 | 0.551
x1 = 0.8544 | 1400.99 | 1383.35 | 980 | 949 | 0.596 | 0.549
x1 = 0.8994 | 1425.35 | 1407.35 | 981 | 949 | 0.588 | 0.544
x1 = 0.9498 | 1452.14 | 1433.5 | 983 | 948 | 0.576 | 0.531
x1 = 1 | 1478.82 | 1459.45 | 985 | 950 | 0.556 | 0.513

ClC(Cl)Cl [trichloromethane] + CO
Settings | mass density, 298.15 K [kg/m3] | mass density, 308.15 K [kg/m3] | speed of sound, 298.15 K [m/s] | speed of sound, 308.15 K [m/s] | viscosity, 298.15 K [mPa·s] | viscosity, 308.15 K [mPa·s]
x1 = 0.0501 | 852.42 | 842 | 1080 | 1048 | 0.587 | 0.523
x1 = 0.0959 | 907.6 | 896.56 | 1060 | 1029 | 0.612 | 0.545
x1 = 0.1501 | 967.31 | 955.55 | 1041 | 1010 | 0.635 | 0.564
x1 = 0.2007 | 1018.13 | 1005.77 | 1028 | 997 | 0.651 | 0.576
x1 = 0.2499 | 1063.89 | 1050.91 | 1017 | 986 | 0.657 | 0.584
x1 = 0.3015 | 1107.99 | 1094.32 | 1007 | 976 | 0.663 | 0.586
x1 = 0.3502 | 1146.56 | 1132.48 | 1000 | 969 | 0.66 | 0.588
x1 = 0.3966 | 1180.85 | 1166.26 | 994 | 963 | 0.658 | 0.584
x1 = 0.4498 | 1217.39 | 1202.34 | 989 | 958 | 0.651 | 0.582
x1 = 0.5047 | 1252.37 | 1236.78 | 984 | 954 | 0.641 | 0.572
x1 = 0.5506 | 1279.51 | 1263.63 | 981 | 950 | 0.633 | 0.569
x1 = 0.6033 | 1308.68 | 1292.64 | 979 | 948 | 0.619 | 0.56
x1 = 0.6515 | 1333.97 | 1317.33 | 977 | 946 | 0.612 | 0.552
x1 = 0.7032 | 1359.31 | 1342.39 | 976 | 945 | 0.601 | 0.55
x1 = 0.751 | 1381.31 | 1363.96 | 976 | 944 | 0.592 | 0.536
x1 = 0.7987 | 1402.09 | 1384.31 | 976 | 944 | 0.583 | 0.531
x1 = 0.85 | 1423.32 | 1405.26 | 977 | 945 | 0.574 | 0.523
x1 = 0.902 | 1443.49 | 1425.07 | 979 | 946 | 0.567 | 0.516
x1 = 0.9505 | 1461.44 | 1442.54 | 982 | 948 | 0.561 | 0.515
x1 = 1 | 1478.82 | 1459.45 | 985 | 950 | 0.556 | 0.513

ClC(Cl)Cl [trichloromethane] + CCCO
Settings | mass density, 298.15 K [kg/m3] | mass density, 308.15 K [kg/m3] | speed of sound, 298.15 K [m/s] | speed of sound, 308.15 K [m/s] | viscosity, 298.15 K [mPa·s] | viscosity, 308.15 K [mPa·s]
x1 = 0.0521 | 838.68 | 829.81 | 1190 | 1155 | 1.84 | 1.452
x1 = 0.0995 | 872.8 | 863.45 | 1171 | 1136 | 1.734 | 1.373
x1 = 0.1503 | 909.09 | 899.13 | 1153 | 1117 | 1.611 | 1.283
x1 = 0.2009 | 944.84 | 934.26 | 1136 | 1099 | 1.492 | 1.196
x1 = 0.2497 | 979.01 | 967.92 | 1119 | 1082 | 1.374 | 1.111
x1 = 0.3057 | 1017.84 | 1006.01 | 1102 | 1064 | 1.235 | 1.011
x1 = 0.3499 | 1048.26 | 1036.01 | 1089 | 1052 | 1.155 | 0.952
x1 = 0.4031 | 1084.7 | 1071.81 | 1074 | 1036 | 1.049 | 0.886
x1 = 0.4509 | 1117.15 | 1103.72 | 1061 | 1023 | 0.968 | 0.818
x1 = 0.5055 | 1154.04 | 1139.98 | 1046 | 1009 | 0.885 | 0.76
x1 = 0.554 | 1186.48 | 1171.86 | 1035 | 998 | 0.822 | 0.714
x1 = 0.5994 | 1216.69 | 1201.5 | 1025 | 988 | 0.776 | 0.679
x1 = 0.651 | 1250.99 | 1235.18 | 1015 | 977 | 0.727 | 0.647
x1 = 0.7033 | 1285.41 | 1269.07 | 1006 | 968 | 0.705 | 0.618
x1 = 0.7505 | 1316.56 | 1299.61 | 999 | 961 | 0.666 | 0.602
x1 = 0.7999 | 1348.87 | 1331.42 | 993 | 955 | 0.64 | 0.585
x1 = 0.8507 | 1382.01 | 1363.98 | 987 | 950 | 0.625 | 0.572
x1 = 0.9002 | 1414.19 | 1395.63 | 984 | 947 | 0.605 | 0.557
x1 = 0.9484 | 1445.46 | 1426.51 | 983 | 947 | 0.586 | 0.539
x1 = 1 | 1478.82 | 1459.45 | 985 | 950 | 0.556 | 0.513
